{
  "source": "paper PMC10220492",
  "about": "“Investigating the mechanism of photoisomerization in jellyfish rhodopsin with the counterion at an atypical position” (The Journal of Biological Chemistry, 2023)",
  "target": "T1, JelRh (box jellyfish rhodopsin) (Carybdea rastonii, UniProt B6F0Y5)",
  "T1 construct": "gene cubop; opsin gene in pFastBac HT vector with C-terminal rho 1D4 tag (TETSQVAPA), Sf9 baculovirus expression, DDM-solubilized, 1D4-purified, wild type reconstituted in PC liposomes",
  "T1 sequence (B6F0Y5 1-330)": "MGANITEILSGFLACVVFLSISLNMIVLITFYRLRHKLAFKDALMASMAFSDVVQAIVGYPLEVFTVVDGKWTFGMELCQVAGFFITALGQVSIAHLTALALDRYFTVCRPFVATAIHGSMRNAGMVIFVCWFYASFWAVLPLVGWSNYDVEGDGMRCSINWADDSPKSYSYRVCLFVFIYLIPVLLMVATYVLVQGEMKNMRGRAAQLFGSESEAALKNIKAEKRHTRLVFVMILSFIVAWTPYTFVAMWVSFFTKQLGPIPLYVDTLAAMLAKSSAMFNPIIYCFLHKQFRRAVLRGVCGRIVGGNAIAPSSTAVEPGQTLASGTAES",
  "assay": "low-temperature UV-visible and FTIR difference spectroscopy of reconstituted pigment",
  "format": "binding",
  "details": "77 K",
  "data": [
    {"smiles": "CC1=C(/C=C/C(C)=C/C=C/C(C)=C/C=O)C(C)(C)CCC1", "note": "[all-trans-retinal]", "values": [
      {"measurement": "low-temperature UV-visible and FTIR difference spectroscopy of reconstituted pig", "setting": "covalent (Schiff base), all-trans bound Batho intermediate made in situ by 500 nm illumination", "value": "the isomerization from 11-cis to all-trans retinal in JelRh is similar to that of BovRh"}
    ]},
    {"smiles": "CC1=C(/C=C/C(C)=C/C=C\\C(C)=C\\C=O)C(C)(C)CCC1", "note": "[11-cis-retinal]", "values": [
      {"measurement": "low-temperature UV-visible and FTIR difference spectroscopy of reconstituted pig", "setting": "covalent (protonated Schiff base), PC liposomes, hydrated film, 11-cis-retinal added at 30 uM to membranes", "value": "The sample after membrane preparation was reconstituted with 11-cis-retinal overnight"}
    ]},
    {"smiles": "CC1=C(/C=C/C(C)=C\\C=C\\C(C)=C\\C=O)C(C)(C)CCC1", "note": "[9-cis-retinal]", "values": [
      {"measurement": "low-temperature UV-visible and FTIR difference spectroscopy of reconstituted pig", "setting": "covalent (protonated Schiff base), 9-cis bound form (Iso-JelRh) made in situ by >520 nm illumination of Batho", "value": "confirming the formation of the 9-cis bound form (so-called Iso-rhodopsin or Iso)"}
    ]}
  ]
}
